The values that follow come from PubChem BioAssay (NCI).

SMILES strings stand for the structures.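 Growth conditions: 96-well plates. Treatment: test compound, 48 hours, 5 concentrations. Analysis: linear interpolation between bracketing concentrations; unreached endpoints set to highest concentration. Here, GI50 denotes the concentration required for 50% inhibition of growth. TGI marks complete inhibition of growth.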 A value given as a limit tells only on which side of the number the result lay.

One experiment deals with HOP-18 NSCLC. The experiment in a line: growth of human tumour cells (NCI), 48 h.
Compound `COc1cc2ccc3c4cc(OC)c(OC(C)C)cc4cnc3c2cc1OC` gave a TGI of over 100 µM.

In turn, `COc1cccc(-n2c3nc(=O)n(C)c(=O)c-3nc3ccccc32)c1` showed a TGI of over 100 µM.

The compound `Cc1cc(C)c(C2[C@H]3C(=O)N(c4ccc(Cc5ccc(N6C(=O)[C@@H]7ON(c8ccccc8)C(c8c(C)cc(C)cc8C)[C@@H]7C6=O)cc5)cc4)C(=O)[C@H]3ON2c2ccccc2)c(C)c1` (some centres undefined) displayed a TGI of over 100 µM.

The compound `CC12CCCCC1(C)C2Sc1ccccc1` (centres undefined) displayed a TGI of over 100 µM.

Regarding `CCCCOC(=O)NC(=O)c1cn(CCCOC(=O)NCCCCCCNC(=O)OCCCn2cc(C(=O)NC(=O)OCCCC)c(=O)[nH]c2=O)c(=O)[nH]c1=O`, the TGI was over 100 µM.

Regarding `COC(=O)/C(C=O)=C/Sc1ccccc1`, the TGI is over 100 µM.

As to `C=C1C[C@]23CCC4C(C)(C)C(=O)CC[C@]4(C)C2C[C@H]1C(O)C3=O` (some centres undefined), the TGI is over 75 µM.

`CC1(C)O/C(=C\c2ccccc2)C(=O)/C(=C/c2ccccc2)O1` registered a TGI of over 100 µM.

As to `[Au+].[Au+].[Au+].[c-]1nccn1Cc1ccccc1.[c-]1nccn1Cc1ccccc1.[c-]1nccn1Cc1ccccc1`, the GI50 was 2.87 µM and the TGI was 8.77 µM.

`CC(C)CCCC(C)[C@H]1CCC2[C@H]3C(CC[C@@]21C)[C@@]1(C)CCC=C[C@]12C[C@@H]2[C@@H]3O` (some centres undefined) returned a TGI of over 100 µM.

Consider `O=C(Nc1cc(Cl)ccc1Cl)C(=O)C(c1cnc2ccccc2n1)[N+](=O)[O-]` (centres undefined), for which the TGI is over 100 µM.

As to `CN[C@@H](C)[C@H](NC)c1ccccc1`, the TGI was over 100 µM.

In the case of `O=S1OC2(c3ccccc3-c3ccccc32)c2ccccc21` (centres undefined), the TGI was over 100 µM.

For another experiment, the system named is DMS 114 small cell lung. The experiment in a line: growth of human tumour cells (NCI), 48 h.
Consider `COc1cc2ccc3c4cc(OC)c(OC(C)C)cc4cnc3c2cc1OC`, for which the TGI was over 100 µM.

As to `COc1cccc(-n2c3nc(=O)n(C)c(=O)c-3nc3ccccc32)c1`, the TGI came out at 25.4 µM.

Regarding `Cc1cc(C)c(C2[C@H]3C(=O)N(c4ccc(Cc5ccc(N6C(=O)[C@@H]7ON(c8ccccc8)C(c8c(C)cc(C)cc8C)[C@@H]7C6=O)cc5)cc4)C(=O)[C@H]3ON2c2ccccc2)c(C)c1` (some centres undefined), the TGI was over 100 µM.

With `CC12CCCCC1(C)C2Sc1ccccc1` (centres undefined), the TGI is over 77.8 µM.

For `CCCCOC(=O)NC(=O)c1cn(CCCOC(=O)NCCCCCCNC(=O)OCCCn2cc(C(=O)NC(=O)OCCCC)c(=O)[nH]c2=O)c(=O)[nH]c1=O`, the TGI was over 100 µM.

As for `COC(=O)/C(C=O)=C/Sc1ccccc1`, the TGI was found to be 41 µM.

As to `CC1(C)O/C(=C\c2ccccc2)C(=O)/C(=C/c2ccccc2)O1`, the TGI is 48.1 µM.

`O=c1[nH]c2cc(Cl)ccc2nc1/C(=N\O)C(O)c1ccc(Cl)cc1Cl` (centres undefined) gave a TGI of over 100 µM.

Turning to `[Au+].[Au+].[Au+].[c-]1nccn1Cc1ccccc1.[c-]1nccn1Cc1ccccc1.[c-]1nccn1Cc1ccccc1`, the GI50 was 1.65 µM and the TGI was found to be 3.13 µM.

`CC(C)CCCC(C)[C@H]1CCC2[C@H]3C(CC[C@@]21C)[C@@]1(C)CCC=C[C@]12C[C@@H]2[C@@H]3O` (some centres undefined) had a TGI of over 100 µM.

`O=C(Nc1cc(Cl)ccc1Cl)C(=O)C(c1cnc2ccccc2n1)[N+](=O)[O-]` (centres undefined) yielded a TGI of over 100 µM.

For the compound `CN[C@@H](C)[C@H](NC)c1ccccc1`, the TGI is over 100 µM.

For `O=S1OC2(c3ccccc3-c3ccccc32)c2ccccc21` (centres undefined), the TGI is over 100 µM.

The next experiment relates to MDA-N. The experiment in a line: growth of human tumour cells (NCI), 48 h.
In the case of `[Au+].[Au+].[Au+].[c-]1nccn1Cc1ccccc1.[c-]1nccn1Cc1ccccc1.[c-]1nccn1Cc1ccccc1`, the GI50 was 11.2 µM and the TGI was found to be 26.6 µM.

For another experiment, the system named is MDA-MB-435. The experiment can be described thus: growth of human tumour cells (NCI), 48 h.
As for `[Au+].[Au+].[Au+].[c-]1nccn1Cc1ccccc1.[c-]1nccn1Cc1ccccc1.[c-]1nccn1Cc1ccccc1`, the GI50 was 11.4 µM and the TGI came to 34.2 µM.

The subject of another experiment is LXFL 529 NSCLC. The experiment in a line: growth of human tumour cells (NCI), 48 h.
Take `COc1cc2ccc3c4cc(OC)c(OC(C)C)cc4cnc3c2cc1OC`: the TGI is over 100 µM.

Regarding `COc1cccc(-n2c3nc(=O)n(C)c(=O)c-3nc3ccccc32)c1`, the TGI was found to be 81.8 µM.

Regarding `Cc1cc(C)c(C2[C@H]3C(=O)N(c4ccc(Cc5ccc(N6C(=O)[C@@H]7ON(c8ccccc8)C(c8c(C)cc(C)cc8C)[C@@H]7C6=O)cc5)cc4)C(=O)[C@H]3ON2c2ccccc2)c(C)c1` (some centres undefined), the TGI was over 100 µM.

`CC12CCCCC1(C)C2Sc1ccccc1` (centres undefined) showed a TGI of over 100 µM.

Compound `CCCCOC(=O)NC(=O)c1cn(CCCOC(=O)NCCCCCCNC(=O)OCCCn2cc(C(=O)NC(=O)OCCCC)c(=O)[nH]c2=O)c(=O)[nH]c1=O` yielded a TGI of over 100 µM.

With `COc1cc(C)c2c(c1C)OC(=O)c1c(C)c(Cl)c(O)c(C=O)c1O2`, the TGI came out at 43.3 µM.

In turn, `COC(=O)/C(C=O)=C/Sc1ccccc1` had a TGI of 78.9 µM.

`C=C1C[C@]23CCC4C(C)(C)C(=O)CC[C@]4(C)C2C[C@H]1C(O)C3=O` (some centres undefined) yielded a TGI of over 75 µM.

Turning to `CC1(C)O/C(=C\c2ccccc2)C(=O)/C(=C/c2ccccc2)O1`, the TGI was over 100 µM.

Consider `O=c1[nH]c2cc(Cl)ccc2nc1/C(=N\O)C(O)c1ccc(Cl)cc1Cl` (centres undefined), for which the TGI is over 100 µM.

Turning to `[Au+].[Au+].[Au+].[c-]1nccn1Cc1ccccc1.[c-]1nccn1Cc1ccccc1.[c-]1nccn1Cc1ccccc1`, the GI50 was 1.83 µM and the TGI worked out at 3.22 µM.

`CC(C)CCCC(C)[C@H]1CCC2[C@H]3C(CC[C@@]21C)[C@@]1(C)CCC=C[C@]12C[C@@H]2[C@@H]3O` (some centres undefined) returned a TGI of over 100 µM.

Take `O=C(Nc1cc(Cl)ccc1Cl)C(=O)C(c1cnc2ccccc2n1)[N+](=O)[O-]` (centres undefined): the TGI was over 100 µM.

As for `CN[C@@H](C)[C@H](NC)c1ccccc1`, the TGI was over 100 µM.

In the case of `O=S1OC2(c3ccccc3-c3ccccc32)c2ccccc21` (centres undefined), the TGI was over 100 µM.

On to `CCOC(=N)CC(=O)Nc1cccc(C)c1C`, for which the TGI is over 100 µM.

The test system of a further experiment is RXF-631 renal. The experiment can be described thus: growth of human tumour cells (NCI), 48 h.
In the case of `COc1cc2ccc3c4cc(OC)c(OC(C)C)cc4cnc3c2cc1OC`, the TGI was over 100 µM.

`COc1cccc(-n2c3nc(=O)n(C)c(=O)c-3nc3ccccc32)c1` yielded a TGI of 76.7 µM.

The compound `Cc1cc(C)c(C2[C@H]3C(=O)N(c4ccc(Cc5ccc(N6C(=O)[C@@H]7ON(c8ccccc8)C(c8c(C)cc(C)cc8C)[C@@H]7C6=O)cc5)cc4)C(=O)[C@H]3ON2c2ccccc2)c(C)c1` (some centres undefined) had a TGI of over 100 µM.

With `CC12CCCCC1(C)C2Sc1ccccc1` (centres undefined), the TGI is over 100 µM.

The compound `CCCCOC(=O)NC(=O)c1cn(CCCOC(=O)NCCCCCCNC(=O)OCCCn2cc(C(=O)NC(=O)OCCCC)c(=O)[nH]c2=O)c(=O)[nH]c1=O` had a TGI of over 100 µM.
